Legend:
Settings in all cases: 72 h
ML-2 [1] = assay: cell viability (% survival relative to DMSO control, bortezomib = 0%); higher = less cytotoxic
How it was run: (§1)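 Percent survival figures are means of duplicate wells. They were obtained by CellTiter-Glo luminescence after 10 AML and 5 CML cell lines spent 72 h at 37 °C with 5% CO2 in 384-well plates with compounds at 1, 10, 100, 1000 or 10000 nM. Vehicle was set to 100% and a 10 µM positive control to 0%.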

KCL-22 [2] = assay: as above
How it was run: as §1

Mono-Mac-6 [3] = assay: as above
How it was run: as §1

K-562 [4] = assay: as above
How it was run: as §1

HEL [5] = assay: as above
How it was run: as §1

SHI-1 [6] = assay: as above
How it was run: as §1

BV-173 [7] = assay: as above
How it was run: as §1

KG-1 [8] = assay: as above
How it was run: as §1

HL-60 [9] = assay: as above
How it was run: as §1

LAMA-84 [10] = assay: as above
How it was run: as §1

MV4-11 [11] = assay: as above
How it was run: as §1

HL-60 [12] = assay: area under dose-response curve (viability, 1 nM-10 uM) (fraction (0-1)); higher = more sensitive
How it was run: (§2)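 In 384-well plates, the full library was rescreened in duplicate on HL-60 cells in RPMI 1640 with 10% FBS, at 1–10,000 nM in five tenfold concentrations, for 72 h at 37 °C, 5% CO2. Each run also held DMSO or 100 nM of one of three metabolic inhibitors. Viability was measured by CellTiter-Glo and normalised to DMSO wells and to wells with proteasome inhibitor, present at 10 μM. Any area under the curve comes from four-parameter log-logistic fitting with drc and PharmacoGx.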

ML-2 [13] = test system: ML-2
How it was run: (§3)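 Fifteen myeloid leukaemia lines were incubated for 72 h at 37 °C with 5% CO2 across five tenfold doses from 1 to 10,000 nM, in duplicate. ATP luminescence was normalised to vehicle and to a positive control at 10 µM and fitted with a four-parameter log-logistic model. The IC50 came from these dose–response fits.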

KCL-22 [14] = test system: KCL-22
How it was run: as §3

Mono-Mac-6 [15] = test system: Mono-Mac-6
How it was run: as §3

MOLM-13 = test system: MOLM-13
How it was run: as §3

K-562 [16] = test system: K-562
How it was run: as §3

HEL [17] = test system: HEL
How it was run: as §3

SHI-1 [18] = test system: SHI-1
How it was run: as §3

BV-173 [19] = test system: BV-173
How it was run: as §3

KG-1 [20] = test system: KG-1
How it was run: as §3

THP-1 = test system: THP-1
How it was run: as §3

HL-60 [21] = test system: HL-60
How it was run: as §3

NOMO-1 = test system: NOMO-1
How it was run: as §3

LAMA-84 [22] = test system: LAMA-84
How it was run: as §3

KU-812 = test system: KU-812
How it was run: as §3

MV4-11 [23] = test system: MV4-11
How it was run: as §3

HL-60 [24] = assay: cell viability (% survival relative to DMSO control); higher = less cytotoxic
How it was run: as §2

OC[C@H]1N[C@@H](c2c[nH]c3c(O)ncnc23)[C@H](O)[C@@H]1O [Forodesine]
Settings	area under dose-response curve, co-treatment: AZD3965 100 nM	area under dose-response curve, co-treatment: DMSO vehicle	area under dose-response curve, co-treatment: GSK2194069 100 nM	area under dose-response curve, co-treatment: pictilisib 100 nM	cell viability, 1 nM [%]	cell viability, 10 nM [%]	cell viability, 100 nM [%]	cell viability, 1000 nM [%]	cell viability, 10000 nM [%]
BV-173 [7]	–	–	–	–	95.1	83.9	103	91.1	89.1
HEL [5]	–	–	–	–	103	95.9	102	92.6	88.6
HL-60 [9]	–	–	–	–	92.1	98	95.8	102	90.2
HL-60 [12]	< 0.0301	< 0.0301	< 0.0301	< 0.0301	–	–	–	–	–
K-562 [4]	–	–	–	–	94.9	94.4	88.3	97.5	99.3
KCL-22 [2]	–	–	–	–	102	91.8	100	99.2	91.3
KG-1 [8]	–	–	–	–	107	94.2	95.4	85.1	82.8
LAMA-84 [10]	–	–	–	–	96.4	90.1	94.7	93	88.7
ML-2 [1]	–	–	–	–	92.7	85	95.3	92.9	85.7
MV4-11 [11]	–	–	–	–	97.1	94.5	91.7	92.3	90.3
Mono-Mac-6 [3]	–	–	–	–	109	87.5	107	108	88.5
SHI-1 [6]	–	–	–	–	101	95.5	94.3	108	98.9

Settings	IC50 (cell viability) [µM]
BV-173 [19]	> 10
HEL [17]	> 10
HL-60 [21]	> 10
K-562 [16]	> 10
KCL-22 [14]	> 10
KG-1 [20]	> 10
KU-812	> 10
LAMA-84 [22]	> 10
ML-2 [13]	> 10
MOLM-13	> 10
MV4-11 [23]	> 10
Mono-Mac-6 [15]	> 10
NOMO-1	> 10
SHI-1 [18]	> 10
THP-1	> 10

cell viability [%], HL-60 [24]
Settings	0.001 µM	0.01 µM	0.1 µM	1 µM	10 µM
co-treatment: AZD3965 100 nM	97.5	105	101	101	94
co-treatment: DMSO vehicle	101	105	105	99.2	100.1
co-treatment: GSK2194069 100 nM	100	103	96.2	98.2	95.9
co-treatment: pictilisib 100 nM	79.7	93.3	99.5	95.3	103.8

O=c1oc2c(cc1O)oc(=O)c1cc(O)c(O)c(O)c12 [Galloflavin]
Settings	area under dose-response curve, co-treatment: AZD3965 100 nM	area under dose-response curve, co-treatment: DMSO vehicle	area under dose-response curve, co-treatment: GSK2194069 100 nM	area under dose-response curve, co-treatment: pictilisib 100 nM	cell viability, 1 nM [%]	cell viability, 10 nM [%]	cell viability, 100 nM [%]	cell viability, 1000 nM [%]	cell viability, 10000 nM [%]
BV-173 [7]	–	–	–	–	91	97.5	99.4	108	118
HEL [5]	–	–	–	–	99.7	98.6	122	106	107
HL-60 [9]	–	–	–	–	108	101	114	180	186
HL-60 [12]	< 0.0301	< 0.0301	< 0.0301	< 0.0301	–	–	–	–	–
K-562 [4]	–	–	–	–	107	105	100	116	112
KCL-22 [2]	–	–	–	–	103	95.3	102	104	112
KG-1 [8]	–	–	–	–	92.7	97.2	114	115	100
LAMA-84 [10]	–	–	–	–	93.7	95	106	98.2	99.4
ML-2 [1]	–	–	–	–	101	95	113	111	115
MV4-11 [11]	–	–	–	–	100	102	94.5	106	102
Mono-Mac-6 [3]	–	–	–	–	92.9	99.7	113	113	100
SHI-1 [6]	–	–	–	–	108	105	106	112	104

Settings	IC50 (cell viability) [µM]
BV-173 [19]	> 10
HEL [17]	> 10
HL-60 [21]	> 10
K-562 [16]	> 10
KCL-22 [14]	> 10
KG-1 [20]	> 10
KU-812	> 10
LAMA-84 [22]	> 10
ML-2 [13]	> 10
MOLM-13	> 10
MV4-11 [23]	> 10
Mono-Mac-6 [15]	> 10
NOMO-1	> 10
SHI-1 [18]	> 10
THP-1	> 10

cell viability [%], HL-60 [24]
Settings	0.001 µM	0.01 µM	0.1 µM	1 µM	10 µM
co-treatment: AZD3965 100 nM	81.9	97.2	110	112	99.6
co-treatment: DMSO vehicle	102	84.8	104	109	99.28
co-treatment: GSK2194069 100 nM	92.6	84.7	104	105	96.52
co-treatment: pictilisib 100 nM	109	93.7	94.13	107	98.54

Nc1ccn([C@@H]2O[C@H](CO)[C@@H](O)C2(F)F)c(=O)n1 [Gemcitabine]
Settings	area under dose-response curve, co-treatment: AZD3965 100 nM	area under dose-response curve, co-treatment: DMSO vehicle	area under dose-response curve, co-treatment: GSK2194069 100 nM	area under dose-response curve, co-treatment: pictilisib 100 nM	cell viability, 1 nM [%]	cell viability, 10 nM [%]	cell viability, 100 nM [%]	cell viability, 1000 nM [%]	cell viability, 10000 nM [%]
BV-173 [7]	–	–	–	–	83.3	-0.488	0.0466	0.053	-0.136
HEL [5]	–	–	–	–	105	1.42	-0.289	0.472	0.991
HL-60 [9]	–	–	–	–	104	38.9	-0.42	0.321	0.435
HL-60 [12]	0.648	0.631	0.634	0.663	–	–	–	–	–
K-562 [4]	–	–	–	–	92.6	62.1	37.3	29.6	28.7
KCL-22 [2]	–	–	–	–	104	37.7	9.55	8.82	9.48
KG-1 [8]	–	–	–	–	105	33.4	9.8	11.5	9.39
LAMA-84 [10]	–	–	–	–	95.6	45.7	5.22	4.64	4.9
ML-2 [1]	–	–	–	–	96.3	3.45	1.35	2.33	2.18
MV4-11 [11]	–	–	–	–	78.5	-0.0353	-0.464	0.602	0.268
Mono-Mac-6 [3]	–	–	–	–	95.1	2.34	1.01	0.852	0.24
SHI-1 [6]	–	–	–	–	101	25.9	34.1	0.0306	-0.276

Settings	IC50 (cell viability) [µM]
BV-173 [19]	0.00213
HEL [17]	0.00346
HL-60 [21]	0.00803
K-562 [16]	0.0164
KCL-22 [14]	0.00687
KG-1 [20]	0.0061
KU-812	0.0033
LAMA-84 [22]	0.00897
ML-2 [13]	0.00312
MOLM-13	0.00311
MV4-11 [23]	0.00188
Mono-Mac-6 [15]	0.00301
NOMO-1	0.0057
SHI-1 [18]	0.00479
THP-1	0.00687

cell viability [%], HL-60 [24]
Settings	0.001 µM	0.01 µM	0.1 µM	1 µM	10 µM
co-treatment: AZD3965 100 nM	101	82.7	5.92	4.29	3.15
co-treatment: DMSO vehicle	99.76	85.6	7.57	6.18	3.121
co-treatment: GSK2194069 100 nM	104	84.92	7.69	5.54	3.32
co-treatment: pictilisib 100 nM	97.8	74.5	6.77	5.09	2.52

From the supplement of paper PMC8671470
